Assay results: the NIST ThermoML archive (doi:10.1016/j.jct.2011.08.016)

Experiment: xn = mol fraction of the nth substance listed
Conditions: Liquid, Vibrating tube method

CCCCCCCCCC [decane] + CCCCCCC
Conditions	mass density [kg/m3]
343.11 K, 10000 kPa, x2 = 0.2594	691.9
343.11 K, 10000 kPa, x2 = 0.952	656.24
343.11 K, 11000 kPa, x2 = 0.2594	692.89
343.11 K, 11000 kPa, x2 = 0.952	657.38
343.11 K, 12000 kPa, x2 = 0.2594	693.86
343.11 K, 12000 kPa, x2 = 0.952	658.49
343.11 K, 13000 kPa, x2 = 0.2594	694.82
343.11 K, 13000 kPa, x2 = 0.952	659.59
343.11 K, 14000 kPa, x2 = 0.2594	695.76
343.11 K, 14000 kPa, x2 = 0.952	660.67
343.11 K, 15000 kPa, x2 = 0.2594	696.69
343.11 K, 15000 kPa, x2 = 0.952	661.74
343.11 K, 16000 kPa, x2 = 0.2594	697.6
343.11 K, 16000 kPa, x2 = 0.952	662.78
343.11 K, 17000 kPa, x2 = 0.2594	698.5
343.11 K, 17000 kPa, x2 = 0.952	663.81
343.11 K, 18000 kPa, x2 = 0.2594	699.38
343.11 K, 18000 kPa, x2 = 0.952	664.84
343.11 K, 19000 kPa, x2 = 0.2594	700.22
343.11 K, 19000 kPa, x2 = 0.952	665.84
343.11 K, 20000 kPa, x2 = 0.2594	701.09
343.11 K, 20000 kPa, x2 = 0.952	666.82
343.11 K, 21000 kPa, x2 = 0.2594	701.92
343.11 K, 21000 kPa, x2 = 0.952	667.78
343.11 K, 22000 kPa, x2 = 0.2594	702.73
343.11 K, 22000 kPa, x2 = 0.952	668.7
343.11 K, 23000 kPa, x2 = 0.2594	703.51
343.11 K, 23000 kPa, x2 = 0.952	669.62
343.11 K, 24000 kPa, x2 = 0.2594	704.28
343.11 K, 24000 kPa, x2 = 0.952	670.52
343.11 K, 25000 kPa, x2 = 0.2594	705.05
343.11 K, 25000 kPa, x2 = 0.952	671.4
353.06 K, 1000 kPa, x2 = 0.0531	682.62
353.06 K, 2000 kPa, x2 = 0.0531	683.77
353.06 K, 3000 kPa, x2 = 0.0531	684.88
353.06 K, 4000 kPa, x2 = 0.0531	685.98
353.06 K, 5000 kPa, x2 = 0.0531	687.07
353.06 K, 6000 kPa, x2 = 0.0531	688.13
353.06 K, 7000 kPa, x2 = 0.0531	689.17
353.06 K, 8000 kPa, x2 = 0.0531	690.21
353.06 K, 9000 kPa, x2 = 0.0531	691.24
353.06 K, 10000 kPa, x2 = 0.0531	692.24
353.06 K, 11000 kPa, x2 = 0.0531	693.24
353.06 K, 12000 kPa, x2 = 0.0531	694.22
353.06 K, 13000 kPa, x2 = 0.0531	695.18
353.06 K, 14000 kPa, x2 = 0.0531	696.13
353.06 K, 15000 kPa, x2 = 0.0531	697.07
353.06 K, 16000 kPa, x2 = 0.0531	698
353.06 K, 17000 kPa, x2 = 0.0531	698.9
353.06 K, 18000 kPa, x2 = 0.0531	699.8
353.06 K, 19000 kPa, x2 = 0.0531	700.69
353.06 K, 20000 kPa, x2 = 0.0531	701.57
353.06 K, 21000 kPa, x2 = 0.0531	702.43
353.06 K, 22000 kPa, x2 = 0.0531	703.3
353.06 K, 23000 kPa, x2 = 0.0531	704.13
353.06 K, 24000 kPa, x2 = 0.0531	704.96
353.06 K, 25000 kPa, x2 = 0.0531	705.78
353.08 K, 1000 kPa, x2 = 0.5219	662.57
353.08 K, 1000 kPa, x2 = 0.777	647.84
353.08 K, 2000 kPa, x2 = 0.5219	663.78
353.08 K, 2000 kPa, x2 = 0.777	649.19
353.08 K, 3000 kPa, x2 = 0.5219	664.95
353.08 K, 3000 kPa, x2 = 0.777	650.47
353.08 K, 4000 kPa, x2 = 0.5219	666.13
353.08 K, 4000 kPa, x2 = 0.777	651.73
353.08 K, 5000 kPa, x2 = 0.5219	667.28
353.08 K, 5000 kPa, x2 = 0.777	653.01
353.08 K, 6000 kPa, x2 = 0.5219	668.44
353.08 K, 6000 kPa, x2 = 0.777	654.25
353.08 K, 7000 kPa, x2 = 0.5219	669.57
353.08 K, 7000 kPa, x2 = 0.777	655.46
353.08 K, 8000 kPa, x2 = 0.5219	670.7
353.08 K, 8000 kPa, x2 = 0.777	656.67
353.08 K, 9000 kPa, x2 = 0.5219	671.82
353.08 K, 9000 kPa, x2 = 0.777	657.88
353.08 K, 10000 kPa, x2 = 0.5219	672.93
353.08 K, 10000 kPa, x2 = 0.777	659.06
353.08 K, 11000 kPa, x2 = 0.5219	674.03
353.08 K, 11000 kPa, x2 = 0.777	660.22
353.08 K, 12000 kPa, x2 = 0.5219	675.1
353.08 K, 12000 kPa, x2 = 0.777	661.36
353.08 K, 13000 kPa, x2 = 0.5219	676.17
353.08 K, 13000 kPa, x2 = 0.777	662.49
353.08 K, 14000 kPa, x2 = 0.5219	677.22
353.08 K, 14000 kPa, x2 = 0.777	663.61
353.08 K, 15000 kPa, x2 = 0.5219	678.26
353.08 K, 15000 kPa, x2 = 0.777	664.7
353.08 K, 16000 kPa, x2 = 0.5219	679.28
353.08 K, 16000 kPa, x2 = 0.777	665.77
353.08 K, 17000 kPa, x2 = 0.5219	680.26
353.08 K, 17000 kPa, x2 = 0.777	666.82
353.08 K, 18000 kPa, x2 = 0.5219	681.28
353.08 K, 18000 kPa, x2 = 0.777	667.86
353.08 K, 19000 kPa, x2 = 0.5219	682.2
